One assay concerns serum corticosterone. The assay can be described thus: Serum corticosterone ELISA after i.p. injection. It is filed as in vivo, mice. The note with it: 100 mg/kg i.p. at ZT3, 1 h after administration. The procedure:
Male C57BL/6J mice (7 weeks old) were purchased from Charles River Japan (Kanagawa, Japan) and used for the serum hormone assay and RT-PCR. Male ICR mice were purchased from Tokyo Laboratory Animals Science Co., Ltd. (Tokyo, Japan), and female PERIOD2::LUCIFERASE (PER2::LUC) knock-in mice (ICR background) bred at Waseda University were used for blood glucose measurements and in vivo imaging assays, respectively. The mice were all housed under conditions of controlled temperature (23 °C ± 3 °C), humidity (50% ± 20%), and lighting (lights on from 07:00 to 19:00 at Taisho Pharmaceutical Co., Ltd. or from 08:00 to 20:00 at Waseda University). In the 24 h cycle, Zeitgeber time 0 (ZT0) was designated as the time when the lights were turned on, and ZT12 was designated as the time when the lights were turned off. […]
Serum corticosterone, adrenaline, and adreno-corticotropic hormone (ACTH) levels, and corticotropin releasing factor (CRF) in the hypothalamus, were measured using enzyme-linked immunosorbent assay (ELISA). […] Blood glucose levels were measured using a Glucose PILOT kit (Aventir Biotech, LLC, Carlsbad, CA, USA). The range of blood glucose that could be precisely measured with the kit was 20–600 mg/dL. […]

The next assay relates to CRF in the hypothalamus. The assay can be described thus: CRF in the hypothalamus ELISA. It is filed as in vivo, mice. Particulars: an hour after injection (50 or 100 mg/kg). The procedure: Serum corticosterone, adrenaline, and adreno-corticotropic hormone (ACTH) levels, and corticotropin releasing factor (CRF) in the hypothalamus, were measured using enzyme-linked immunosorbent assay (ELISA). A corticosterone ELISA kit (Cayman Chemical Company, Ann Arbor, MI, USA), an adrenaline ELISA kit (Abcam, Cambridge, UK), an ACTH ELISA kit (Phoenix Pharmaceuticals Inc., Burlingame, CA, USA), and a CRF ELISA kit (Yanaihara Institute Inc., Shizuoka, Japan) were used. Assays were conducted according to the manufacturer’s instructions. Blood samples were collected from the mice at ZT4, 5, and 7 after the administration of nobiletin at ZT3 (10 mg/kg and 100 mg/kg, in Figure 3A,B). Blood glucose levels were measured using a Glucose PILOT kit (Aventir Biotech, LLC, Carlsbad, CA, USA). The range of blood glucose that could be precisely measured with the kit was 20–600 mg/dL. Before measurement, we administered nobiletin (100 mg/kg body weight) to the mice, after 4 h fasting. Blood was collected from the tail vein of each mouse for measurement. The measurements were conducted at 0, 15, 30, 45, 60, and 90 min after reagent administration in Figure 3C. Samples were collected one hour after nobiletin treatment (50 or 100 mg/kg; Figure 3D,E), or 2 or 4 h after treatment in Figure 3F. […]
For orientation: ELISA stands for enzyme-linked immunosorbent assay.

Take `COc1ccc(-c2cc(=O)c3c(OC)c(OC)c(OC)c(OC)c3o2)cc1OC` [nobiletin]: in the assay on serum corticosterone, the serum corticosterone levels entry is “increase”. In addition, the “CRF in the hypothalamus” value in the assay on CRF in the hypothalamus is listed as “did not change significantly”.

Values taken from article PMC11123956, “Nobiletin Stimulates Adrenal Hormones and Modulates the Circadian Clock in Mice” (Nutrients, 2024).
